From patent US11498899B2, “Nitrone herbicides” (FMC Corporation, priority 2016, dated 2022)

Assays:
[1] = test system: kochia (Kochia scoparia); assay: Test A postemergence, visual injury rating 0-100; format: in vivo; details: 0 to 100 scale
[2] = test system: wheat (Triticum aestivum); assay: Test A postemergence, visual injury rating 0-100; format: in vivo; details: 0 to 100 scale
[3] = test system: pigweed (Amaranthus retroflexus); assay: Test A postemergence, visual injury rating 0-100; format: in vivo; details: 0 to 100 scale
[4] = test system: ryegrass, Italian (Italian ryegrass, Lolium multiflorum); assay: Test A postemergence, visual injury rating 0-100; format: in vivo; details: 0 to 100 scale
[5] = test system: corn (Zea mays); assay: Test A postemergence, visual injury rating 0-100; format: in vivo; details: 0 to 100 scale
[6] = test system: blackgrass (Alopecurus myosuroides); assay: Test A postemergence, visual injury rating 0-100; format: in vivo; details: 0 to 100 scale
[7] = test system: foxtail, green (green foxtail, Setaria viridis); assay: Test A postemergence, visual injury rating 0-100; format: in vivo; details: 0 to 100 scale
[8] = test system: ragweed (common ragweed, Ambrosia elatior); assay: Test A postemergence, visual injury rating 0-100; format: in vivo; details: 0 to 100 scale
[9] = test system: galium (catchweed bedstraw, Galium aparine); assay: Test A postemergence, visual injury rating 0-100; format: in vivo; details: 0 to 100 scale
[10] = test system: barnyardgrass (Echinochloa crus-galli); assay: Test A postemergence, visual injury rating 0-100; format: in vivo; details: 0 to 100 scale
[11] = test system: barnyardgrass (Echinochloa crus-galli); assay: Test A preemergence, visual injury rating 0-100 (0 no effect, 100 complete control); format: in vivo; details: for Barnyardgrass plant response rating (0 to 100 scale): 125 g ai/ha; for Barnyardgrass plant response rating: 500 g ai/ha, 0 to 100 scale
[12] = test system: rice (Oryza sativa); assay: Test B flooded paddy test, visual rating 0-100 (0 no effect, 100 complete control); details: Flood, 250 g ai/ha, applied to paddy water, rated after 13 to 15 days
[13] = test system: barnyardgrass (Echinochloa crus-galli); assay: Test B flooded paddy test, visual rating 0-100; details: Flood, 250 g ai/ha, applied to paddy water, rated after 13 to 15 days
[14] = test system: kochia (Kochia scoparia); assay: Test A preemergence, visual injury rating 0-100; format: in vivo
[15] = test system: pigweed (Amaranthus retroflexus); assay: Test A preemergence, visual injury rating 0-100; format: in vivo
[16] = test system: ryegrass, Italian (Italian ryegrass, Lolium multiflorum); assay: Test A preemergence, visual injury rating 0-100; format: in vivo
[17] = test system: foxtail, green (green foxtail, Setaria viridis); assay: Test A preemergence, visual injury rating 0-100; format: in vivo
[18] = test system: ragweed (common ragweed, Ambrosia elatior); assay: Test A preemergence, visual injury rating 0-100; format: in vivo
[19] = test system: ducksalad (Heteranthera limosa); assay: Test B flooded paddy test, visual rating 0-100; details: Flood, 250 g ai/ha, applied to paddy water, rated after 13 to 15 days

Structure (SMILES) | Kochia plant response rating ([1]; 125 g ai/ha) | Kochia plant response rating ([1]; 500 g ai/ha) | Wheat plant response rating ([2]; 125 g ai/ha) | Wheat plant response rating ([2]; 500 g ai/ha) | Pigweed plant response rating ([3]; 125 g ai/ha) | Pigweed plant response rating ([3]; 500 g ai/ha) | Ryegrass, Italian plant response rating ([4]; 125 g ai/ha) | Ryegrass, Italian plant response rating ([4]; 500 g ai/ha) | Corn plant response rating ([5]; 125 g ai/ha) | Corn plant response rating ([5]; 500 g ai/ha) | Blackgrass plant response rating ([6]; 125 g ai/ha) | Blackgrass plant response rating ([6]; 500 g ai/ha) | Foxtail, Green plant response rating ([7]; 125 g ai/ha) | Foxtail, Green plant response rating ([7]; 500 g ai/ha) | Ragweed plant response rating ([8]; 125 g ai/ha) | Ragweed plant response rating ([8]; 500 g ai/ha) | Galium plant response rating ([9]; 125 g ai/ha) | Galium plant response rating ([9]; 500 g ai/ha) | Barnyardgrass plant response rating ([10]; 125 g ai/ha) | Barnyardgrass plant response rating ([10]; 500 g ai/ha) | other results
CSc1ccccc1NC(=O)C1C(c2ccc(C(F)(F)F)cc2)CC(C)=[N+]1[O-] (racemic) [Compound 29] | 0 | 0 | 0 | 0 | 10 | 30 | 0 | 0 | 0 | 0 | 20 | 30 | 20 | 50 | 0 | 60 | 40 | 60 | 10 | 30 | Barnyardgrass plant response rating (0 to 100 scale) [11]: 0; Barnyardgrass plant response rating [11]: 80; Rice plant response rating (0 to 100 scale) [12]: 0; Barnyardgrass plant response rating (0 to 100 scale) [13]: 0; Kochia plant response rating (0 to 100 scale) ([14]; 125 g ai/ha): 0; Kochia plant response rating ([14]; 500 g ai/ha, 0 to 100 scale): 20; Pigweed plant response rating (0 to 100 scale) ([15]; 125 g ai/ha): 10; Pigweed plant response rating ([15]; 500 g ai/ha, 0 to 100 scale): 90; Ryegrass, Italian plant response rating (0 to 100 scale) ([16]; 125 g ai/ha): 0; Ryegrass, Italian plant response rating ([16]; 500 g ai/ha, 0 to 100 scale): 20; Foxtail, Green plant response rating (0 to 100 scale) ([17]; 125 g ai/ha): 20; Foxtail, Green plant response rating ([17]; 500 g ai/ha, 0 to 100 scale): 100; Ragweed plant response rating (0 to 100 scale) ([18]; 125 g ai/ha): 20; Ragweed plant response rating ([18]; 500 g ai/ha, 0 to 100 scale): 100; Ducksalad plant response rating (0 to 100 scale) [19]: 0
CC1=[N+]([O-])C(C(=O)Nc2ccccc2C#N)C(c2ccc(C(F)(F)F)cc2)C1 (racemic) [Compound 32] | 0 | 20 | 0 | 0 | 0 | 20 | 0 | 0 | 10 | 50 | 0 | 20 | 20 | 50 | 0 | 20 | 70 | 80 | 20 | 40 | Barnyardgrass plant response rating (0 to 100 scale) [11]: 0; Barnyardgrass plant response rating [11]: 100; Rice plant response rating (0 to 100 scale) [12]: 0; Barnyardgrass plant response rating (0 to 100 scale) [13]: 0; Kochia plant response rating (0 to 100 scale) ([14]; 125 g ai/ha): 0; Kochia plant response rating (0 to 100 scale) ([14]; 500 g ai/ha): 70; Pigweed plant response rating (0 to 100 scale) ([15]; 125 g ai/ha): 0; Pigweed plant response rating (0 to 100 scale) ([15]; 500 g ai/ha): 80; Ryegrass, Italian plant response rating (0 to 100 scale) ([16]; 125 g ai/ha): 10; Ryegrass, Italian plant response rating (0 to 100 scale) ([16]; 500 g ai/ha): 10; Foxtail, Green plant response rating (0 to 100 scale) ([17]; 125 g ai/ha): 10; Foxtail, Green plant response rating (0 to 100 scale) ([17]; 500 g ai/ha): 100; Ragweed plant response rating (0 to 100 scale) ([18]; 125 g ai/ha): 70; Ragweed plant response rating (0 to 100 scale) ([18]; 500 g ai/ha): 100; Ducksalad plant response rating (0 to 100 scale) [19]: 0
CC1=[N+]([O-])C(C(=O)Nc2ccccc2C(F)(F)F)C(c2ccc(C(F)(F)F)cc2)C1 (racemic) [Compound 33] | 0 | 0 | 0 | 0 | 0 | 20 | 0 | 0 | 10 | 30 | 0 | 0 | 0 | 70 | 0 | 40 | 70 | 70 | 0 | 40 | Barnyardgrass plant response rating (0 to 100 scale) [11]: 90; Barnyardgrass plant response rating [11]: 90; Rice plant response rating (0 to 100 scale) [12]: 0; Barnyardgrass plant response rating (0 to 100 scale) [13]: 20; Kochia plant response rating (0 to 100 scale) ([14]; 125 g ai/ha): 0; Kochia plant response rating (0 to 100 scale) ([14]; 500 g ai/ha): 70; Pigweed plant response rating (0 to 100 scale) ([15]; 125 g ai/ha): 0; Pigweed plant response rating (0 to 100 scale) ([15]; 500 g ai/ha): 50; Ryegrass, Italian plant response rating (0 to 100 scale) ([16]; 125 g ai/ha): 0; Ryegrass, Italian plant response rating (0 to 100 scale) ([16]; 500 g ai/ha): 20; Foxtail, Green plant response rating (0 to 100 scale) ([17]; 125 g ai/ha): 50; Foxtail, Green plant response rating (0 to 100 scale) ([17]; 500 g ai/ha): 100; Ragweed plant response rating (0 to 100 scale) ([18]; 125 g ai/ha): 70; Ragweed plant response rating (0 to 100 scale) ([18]; 500 g ai/ha): 80; Ducksalad plant response rating (0 to 100 scale) [19]: 0
CC1=[N+]([O-])C(C(=O)Nc2cccnc2F)C(c2ccc(C(F)(F)F)cc2)C1 (racemic) [Compound 41] | 0 | 20 | 0 | 30 | 30 | 70 | 0 | 70 | 0 | 0 | 30 | 50 | 40 | 80 | 0 | 40 | 60 | 70 | 30 | 90 | Barnyardgrass plant response rating (0 to 100 scale) [11]: 90; Barnyardgrass plant response rating [11]: 100; Rice plant response rating (0 to 100 scale) [12]: 0; Barnyardgrass plant response rating (0 to 100 scale) [13]: 20; Kochia plant response rating (0 to 100 scale) ([14]; 125 g ai/ha): 0; Kochia plant response rating (0 to 100 scale) ([14]; 500 g ai/ha): 90; Pigweed plant response rating (0 to 100 scale) ([15]; 125 g ai/ha): 90; Pigweed plant response rating (0 to 100 scale) ([15]; 500 g ai/ha): 90; Ryegrass, Italian plant response rating (0 to 100 scale) ([16]; 125 g ai/ha): 10; Ryegrass, Italian plant response rating (0 to 100 scale) ([16]; 500 g ai/ha): 70; Foxtail, Green plant response rating (0 to 100 scale) ([17]; 125 g ai/ha): 80; Foxtail, Green plant response rating (0 to 100 scale) ([17]; 500 g ai/ha): 100; Ragweed plant response rating (0 to 100 scale) ([18]; 125 g ai/ha): 80; Ragweed plant response rating (0 to 100 scale) ([18]; 500 g ai/ha): 100; Ducksalad plant response rating (0 to 100 scale) [19]: 80
